Results taken from ChEMBL document CHEMBL3885881, “DrugMatrix”.

Organism: Rattus norvegicus
Assay: DrugMatrix - Regimen: Daily Repeat
Type: toxicity, organism-based, Sprague-Dawley
Set-up: regimen Daily Repeat, gender Male, age 6-8 weeks
Details: in vivo, po, 1402 mg/kg, route oral GAVAGE, dose level High, vehicle 100 % WATER; for ABSOLUTE BASOPHIL / ABSOLUTE EOSINOPHIL / ABSOLUTE LYMPHOCYTE / ABSOLUTE MONOCYTE / ABSOLUTE SEGMENTED NEUTROPHIL / BASOPHIL / EOSINOPHIL / ERYTHROCYTE COUNT / HEMATOCRIT / HEMOGLOBIN / LEUKOCYTE COUNT / LYMPHOCYTE / MEAN CORPUSCULAR HEMOGLOBIN / MEAN CORPUSCULAR HEMOGLOBIN CONCENTRATION / MEAN CORPUSCULAR VOLUME / MONOCYTE / NEUTROPHIL / NUCLEATED RED BLOOD CELLS / PLATELET COUNT: tissue Blood; for ALANINE AMINOTRANSFERASE / ALBUMIN / ALKALINE PHOSPHATASE / ASPARTATE AMINOTRANSFERASE / BLOOD UREA NITROGEN / CARBON DIOXIDE / CHLORIDE / CHOLESTEROL / CREATINE PHOSPHOKINASE / CREATININE / GLUCOSE / LACTATE DEHYDROGENASE / LIPASE / PHOSPHORUS / POTASSIUM / SODIUM / TOTAL BILIRUBIN / TOTAL PROTEIN / URIC ACID: tissue Plasma

C[C@H](CCC(=O)O)[C@H]1CC[C@H]2[C@@H]3[C@H](O)C[C@@H]4C[C@H](O)CC[C@]4(C)[C@H]3C[C@H](O)[C@]12C [CHOLIC ACID]
ABSOLUTE BASOPHIL (72 h, time 3 day): 0 CELLS/uL
ABSOLUTE EOSINOPHIL (72 h, time 3 day): 95.33 CELLS/uL
ABSOLUTE LYMPHOCYTE (72 h, time 3 day): 13410.67 CELLS/uL
ABSOLUTE MONOCYTE (72 h, time 3 day): 0 CELLS/uL
ABSOLUTE SEGMENTED NEUTROPHIL (72 h, time 3 day): 960.67 CELLS/uL
BASOPHIL (72 h, time 3 day): 0%
EOSINOPHIL (72 h, time 3 day): 0.67%
ERYTHROCYTE COUNT (72 h, time 3 day): 5.62 x10E6/uL
HEMATOCRIT (72 h, time 3 day): 34.5%
HEMOGLOBIN (72 h, time 3 day): 13.7 G/DL
LEUKOCYTE COUNT (72 h, time 3 day): 14.47 x10E3/uL
LYMPHOCYTE (72 h, time 3 day): 92.67%
MEAN CORPUSCULAR HEMOGLOBIN (72 h, time 3 day): 24.47 pg
MEAN CORPUSCULAR HEMOGLOBIN CONCENTRATION (72 h, time 3 day): 39.8 G/DL
MEAN CORPUSCULAR VOLUME (72 h, time 3 day): 61.47 fL
MONOCYTE (72 h, time 3 day): 0%
NEUTROPHIL (72 h, time 3 day): 6.67%
NUCLEATED RED BLOOD CELLS (72 h, time 3 day): 0 /100WBC
PLATELET COUNT (72 h, time 3 day): 1053.33 x10E3/uL
ALANINE AMINOTRANSFERASE (72 h, time 3 day): 55.33 u/L
ALBUMIN (72 h, time 3 day): 4.17 G/DL
ALKALINE PHOSPHATASE (72 h, time 3 day): 359.33 u/L
ASPARTATE AMINOTRANSFERASE (72 h, time 3 day): 84.67 u/L
BLOOD UREA NITROGEN (72 h, time 3 day): 16 mg/dL
CARBON DIOXIDE (72 h, time 3 day): 32 mmol/L
CHLORIDE (72 h, time 3 day): 101.67 MEQ/L
CHOLESTEROL (72 h, time 3 day): 91.33 mg/dL
CREATINE PHOSPHOKINASE (72 h, time 3 day): 224 u/L
CREATININE (72 h, time 3 day): 0.19 mg/dL
GLUCOSE (72 h, time 3 day): 152 mg/dL
LACTATE DEHYDROGENASE (72 h, time 3 day): 124.33 u/L
LIPASE (72 h, time 3 day): 9.67 u/L
PHOSPHORUS (72 h, time 3 day): 12.63 mg/dL
POTASSIUM (72 h, time 3 day): 7.15 MEQ/L
SODIUM (72 h, time 3 day): 144.2 MEQ/L
TOTAL BILIRUBIN (72 h, time 3 day): 0.2 mg/dL
TOTAL PROTEIN (72 h, time 3 day): 5.77 G/DL
URIC ACID (72 h, time 3 day): 1.93 mg/dL
ABSOLUTE BASOPHIL (120 h, time 5 day): 0 CELLS/uL
ABSOLUTE EOSINOPHIL (120 h, time 5 day): 0 CELLS/uL
ABSOLUTE LYMPHOCYTE (120 h, time 5 day): 13701.33 CELLS/uL
ABSOLUTE MONOCYTE (120 h, time 5 day): 565.67 CELLS/uL
ABSOLUTE SEGMENTED NEUTROPHIL (120 h, time 5 day): 1233 CELLS/uL
BASOPHIL (120 h, time 5 day): 0%
EOSINOPHIL (120 h, time 5 day): 0%
ERYTHROCYTE COUNT (120 h, time 5 day): 5.73 x10E6/uL
HEMATOCRIT (120 h, time 5 day): 34.97%
HEMOGLOBIN (120 h, time 5 day): 13.73 G/DL
LEUKOCYTE COUNT (120 h, time 5 day): 15.5 x10E3/uL
LYMPHOCYTE (120 h, time 5 day): 88.67%
MEAN CORPUSCULAR HEMOGLOBIN (120 h, time 5 day): 24 pg
MEAN CORPUSCULAR HEMOGLOBIN CONCENTRATION (120 h, time 5 day): 39.3 G/DL
MEAN CORPUSCULAR VOLUME (120 h, time 5 day): 60.97 fL
MONOCYTE (120 h, time 5 day): 3.67%
NEUTROPHIL (120 h, time 5 day): 7.67%
NUCLEATED RED BLOOD CELLS (120 h, time 5 day): 0.67 /100WBC
PLATELET COUNT (120 h, time 5 day): 1207 x10E3/uL
ALANINE AMINOTRANSFERASE (120 h, time 5 day): 112 u/L
ALBUMIN (120 h, time 5 day): 4.27 G/DL
ALKALINE PHOSPHATASE (120 h, time 5 day): 330 u/L
ASPARTATE AMINOTRANSFERASE (120 h, time 5 day): 171 u/L
BLOOD UREA NITROGEN (120 h, time 5 day): 16.33 mg/dL
CARBON DIOXIDE (120 h, time 5 day): 30.33 mmol/L
CHLORIDE (120 h, time 5 day): 101.67 MEQ/L
CHOLESTEROL (120 h, time 5 day): 94.33 mg/dL
CREATINE PHOSPHOKINASE (120 h, time 5 day): 383.67 u/L
CREATININE (120 h, time 5 day): 0.27 mg/dL
GLUCOSE (120 h, time 5 day): 120.67 mg/dL
LACTATE DEHYDROGENASE (120 h, time 5 day): 380.33 u/L
LIPASE (120 h, time 5 day): 12 u/L
PHOSPHORUS (120 h, time 5 day): 12.13 mg/dL
POTASSIUM (120 h, time 5 day): 7.47 MEQ/L
SODIUM (120 h, time 5 day): 144.4 MEQ/L
TOTAL BILIRUBIN (120 h, time 5 day): 0.2 mg/dL
TOTAL PROTEIN (120 h, time 5 day): 6.23 G/DL
URIC ACID (120 h, time 5 day): 2.1 mg/dL
